Measured values as given in patent US8623400B2, “Drug-carrying contact lens and method for fabricating the same” (National Chiao Tung University, priority 2011, dated 2014).

Test: Drug-release test of drug-carrying contact lenses
Assay type: physicochemical
Source text: The drug-release tests are respectively performed on the first encapsulation-type drug-carrying contact lens and the drug-soaking type contact lens of the present invention to understand the drug-release thereof.
In one embodiment, the encapsulation-type drug-carrying contact lens adopts a hydrophobic antibiotic—Azithromycin, which is an oral azalide group antibiotic that is a subgroup of macrolides, and which is a broad-spectrum antibiotic effective to Gram-positive bacteria, Gram-negative bacteria, anaerobic bacteria, Chlamydia, helicoids, etc. […] Such a phenomenon may be attributed to the fact: the higher the temperature, the higher the oscillation frequency of the drug molecules, and the greater the quantity of the drug molecules diffusing out. In the present invention, the drug-release amount can be quantitively controlled according to the application environment. Therefore, the present invention has a potential to realize a customized drug-carrying contact lens.
In one embodiment, the drug-soaking type drug-carrying contact lens adopts Vitamin B12, which is a hydrophilic drug and effective to pernicious anaemia, and which is a red crystalline powder likely to absorb humidity, easy to dissolve in water and alcohol, and slightly unstable in the environment of light, strong acid, and base. […] Such a phenomenon is attributed to the fact that the greater the concentration difference, the higher the driving force of drug molecule diffusion.

Compound: CC[C@H]1OC(=O)[C@H](C)[C@@H](O[C@H]2C[C@@](C)(OC)[C@@H](O)[C@H](C)O2)[C@H](C)[C@@H](O[C@@H]2O[C@H](C)C[C@H](N(C)C)[C@H]2O)[C@](C)(O)C[C@@H](C)CN(C)[C@H](C)[C@@H](O)[C@]1(C)O [Azithromycin]
- release quantity of Azithromycin with respect to temperature (encapsulation-type drug-carrying contact lens, FIG. 6): increases with the temperature

Compound: Vitamin B12
- release of Vitamin B12 versus drug-carrying contact lens free of drug carriers (drug-soaking type drug-carrying contact lens containing the drug carriers, FIG. 7(a)): more slowly
- drug-release rate with respect to drug concentration (drug-soaking type drug-carrying contact lens, different concentrations of Vitamin B12, FIG. 7(b)): increases with the concentration of the drug molecules
